In patent US8703776B2 (Cymabay Therapeutics, Inc., priority 2011, dated 2014):

What follows are molecules tested against T1, human GPR131 (Homo sapiens, UniProt Q8TDU6) (assay: Stimulation of cAMP in stable cell line expressing human GPR131 (FRET cAMP kit)). Details: 0.5 h; 1.1 μM compound, relative to maximal stimulatory activity of lithocholic acid at 3.3 μM; 30 minutes at 37° C.; read-out: Percent Activity @ 1.1 μM (of 3.3 uM LCA) (%).
T1 construct: expressed in transfected cells
T1 sequence (Q8TDU6 1-330): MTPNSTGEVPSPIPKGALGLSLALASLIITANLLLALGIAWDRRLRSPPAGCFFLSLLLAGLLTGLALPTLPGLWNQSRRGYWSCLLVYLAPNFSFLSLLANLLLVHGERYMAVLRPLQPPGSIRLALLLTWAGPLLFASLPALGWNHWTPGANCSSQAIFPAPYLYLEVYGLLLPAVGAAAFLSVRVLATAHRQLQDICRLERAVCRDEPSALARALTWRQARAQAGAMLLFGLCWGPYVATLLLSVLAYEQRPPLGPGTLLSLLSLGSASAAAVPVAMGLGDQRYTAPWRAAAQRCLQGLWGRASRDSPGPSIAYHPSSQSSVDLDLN
Format: cell-based
Procedure: This assay was developed using a stable cell line expressing human GPR131.
To measure cAMP activity in response to GPR131 agonists, GPR131 cells suspended in DMEM/F12 medium with 1 mM IBMX were seeded in 384 well plates at 5000 cells per well. After incubating with test compounds at 37° C. for 30 minutes cAMP was measured using a fluorescene resonance energy transfer cAMP kit from Cis Bio (Bedford, Mass.) according to the manufacturer's instructions. Briefly, cells were lysed, and cAMP levels determined by competitive immunoassay using D2 labeled cAMP, and europium cryptate tagged anti cAMP antibody. Decreases in the FRET signal (fluorescence ratio (665 nm/620 […]) correspond to increases in intracellular cAMP levels.
Activities of test compounds in Table 1 below are expressed as % activity at 1.1 μM compound compared to the maximal stimulatory activity of lithocholic acid (LCA) (determined at 3.3 μM LCA)
With O=C(c1cnc(SCc2c(F)cccc2Cl)n1-c1ccc(F)cc1)N1CCCC1c1ccncc1 (stereo not drawn) [Compound 539, (2-((2-Chloro-6-fluorobenzyl)thio)-1-(4-fluorophenyl)-1H-imidazol-5-yl)(2-(pyridin-4-yl)pyrrolidin-1-yl)methanone] the activation at 1.1 µM was 95%.
With CN(Cc1ccncc1)C(=O)c1cnc(SCc2cc(Cl)ccc2F)n1-c1ccc(F)cc1 [Compound 616, 2-((5-Chloro-2-fluorobenzyl)thio)-1-(4-fluorophenyl)-N-methyl-N-(pyridin-4-ylmethyl)-1H-imidazole-5-carboxamide] the activation at 1.1 µM was 100%.
Cc1ccc(F)c(CSc2ncc(C(=O)N(C)Cc3ccncc3)n2-c2ccc(F)cc2)c1Cl [Compound 620, 2-((2-Chloro-6-fluoro-3-methylbenzyl)thio)-1-(4-fluorophenyl)-N-methyl-N-(pyridin-4-ylmethyl)-1H-imidazole-5-carboxamide] gave an activation at 1.1 µM of 99%.
Molecule Cc1ccc(-n2c(C(=O)N(C)Cc3ccncc3)cnc2SCc2c(F)cccc2Cl)cc1 [Compound 563, 2-((2-Chloro-6-fluorobenzyl)thio)-N-methyl-N-(pyridin-4-ylmethyl)-1-(p-tolyl)-1H-imidazole-5-carboxamide] has an activation at 1.1 µM of 98%.
In the case of Cc1nn(C)cc1CN(C)C(=O)c1cnc(SCc2cc(C(C)C)no2)n1-c1ccc(F)cc1 [Compound 631, N-((1,3-Dimethyl-1H-pyrazol-4-yl)methyl)-1-(4-fluorophenyl)-2-(((3-isopropylisoxazol-5-yl)methyl)thio)-N-methyl-1H-imidazole-5-carboxamide], the activation at 1.1 µM is reported as 97%.
Molecule CN(Cc1ccncc1)C(=O)c1cnc(SCc2c(F)cccc2Cl)n1-c1ccc(Cl)cc1 [Compound 556, 2-((2-Chloro-6-fluorobenzyl)thio)-1-(4-chlorophenyl)-N-methyl-N-(pyridin-4-ylmethyl)-1H-imidazole-5-carboxamide] has an activation at 1.1 µM of 99%.
Cc1ccc(Cl)c(CSc2ncc(C(=O)N(C)Cc3cn(C)nc3C)n2-c2ccc(F)cc2)c1F [Compound 597, 2-((6-Chloro-2-fluoro-3-methylbenzyl)thio)-N-((1,3-dimethyl-1H-pyrazol-4-yl)methyl)-1-(4-fluorophenyl)-N-methyl-1H-imidazole-5-carboxamide] showed an activation at 1.1 µM of 100%.
Work on Fc1ccc(-n2c(COCc3ccncc3)nnc2SCc2c(F)ccc(F)c2F)cc1 [Compound 606] yielded an activation at 1.1 µM of 98%.
In the case of Cc1nn(C)cc1CN(C)C(=O)c1cnc(SCc2ncccc2Cl)n1-c1ccc(F)cc1 [Compound 551], the activation at 1.1 µM is reported as 99%.
Work on CN(Cc1ccncc1)C(=O)c1cnc(SCc2c(F)cccc2C(F)(F)F)n1-c1ccc(F)cc1 [Compound 607, 2-((2-Fluoro-6-(trifluoromethyl)benzyl)thio)-1-(4-fluorophenyl)-N-methyl-N-(pyridin-4-ylmethyl)-1H-imidazole-5-carboxamide] yielded an activation at 1.1 µM of 93%.
Work on CCOC(=O)CSc1ncc(C(=O)N(C)Cc2cn(C)nc2C)n1-c1ccc(F)cc1 [Compound 637, Ethyl 2-((5-(((1,3-dimethyl-1H-pyrazol-4-yl)methyl)(methyl)carbamoyl)-1-(4-fluorophenyl)-1H-imidazol-2-yl)thio)acetate] yielded an activation at 1.1 µM of 94%.
Cc1nn(C)cc1CNCc1cnc(SCc2c(F)ccc(F)c2F)n1-c1ccc(F)cc1 [Compound 531, 1-(1,3-Dimethyl-1H-pyrazol-4-yl)-N-((1-(4-fluorophenyl)-2-((2,3,6-trifluorobenzyl)thio)-1H-imidazol-5-yl)methyl)methanamine] showed an activation at 1.1 µM of 84%.
CN(Cc1ccnc(Cl)c1)C(=O)c1cnc(SCc2c(F)ccc(F)c2F)n1-c1ccc(F)cc1 [Compound 578, N-((2-Chloropyridin-4-yl)methyl)-1-(4-fluorophenyl)-N-methyl-2-((2,3,6-trifluorobenzyl)thio)-1H-imidazole-5-carboxamide] showed an activation at 1.1 µM of 99%.
Cc1nn(C)cc1CN(C)C(=O)c1cnc(CSc2c(F)c(F)cc(F)c2F)n1-c1ccc(F)cc1 [Compound 569, N-((1,3-Dimethyl-1H-pyrazol-4-yl)methyl)-1-(4-fluorophenyl)-N-methyl-2-(((2,3,5,6-tetrafluorophenyl)thio)methyl)-1H-imidazole-5-carboxamide] showed an activation at 1.1 µM of 98%.
Work on Cc1nn(C)cc1CN(C)C(=O)c1cnc(SCc2ccncc2)n1-c1ccc(F)cc1 [Compound 579, N-((1,3-Dimethyl-1H-pyrazol-4-yl)methyl)-1-(4-fluorophenyl)-N-methyl-2-((pyridine-4-ylmethyl)thio)-1H-imidazole-5-carboxamide] yielded an activation at 1.1 µM of 85%.
CN(Cc1ccnc(C(F)(F)F)c1)C(=O)c1cnc(SCc2c(F)ccc(F)c2F)n1-c1ccc(F)cc1 [Compound 587] was tested, and the activation at 1.1 µM was 86%.
Molecule CN(Cc1ccncc1)C(=O)c1cnc(SCc2cc(F)ccc2Cl)n1-c1ccc(F)cc1 [Compound 615, 2-((2-Chloro-5-fluorobenzyl)thio)-1-(4-fluorophenyl)-N-methyl-N-(pyridin-4-ylmethyl)-1H-imidazole-5-carboxamide] has an activation at 1.1 µM of 98%.
Molecule Cc1cc(CN(C)C(=O)c2cnc(SCCc3ccc(F)c(Cl)c3)n2-c2ccc(F)cc2)ccn1 [Compound 583] has an activation at 1.1 µM of 96%.
In the case of CN(Cc1ccncc1)C(=O)c1cnc(SCc2cccc(C(F)(F)F)c2)n1-c1ccc(F)cc1 [Compound 621, 1-(4-Fluorophenyl)-N-methyl-N-(pyridin-4-ylmethyl)-2-((3-(trifluoromethyl)benzyl)thio)-1H-imidazole-5-carboxamide], the activation at 1.1 µM is reported as 98%.
For CN(Cc1ccncc1)C(=O)c1cnc(SCc2ccc(Cl)cc2C(F)(F)F)n1-c1ccc(F)cc1 [Compound 609, 2-((4-Chloro-2-(trifluoromethyl)benzyl)thio)-1-(4-fluorophenyl)-N-methyl-N-(pyridin-4-ylmethyl)-1H-imidazole-5-carboxamide], the activation at 1.1 µM was 86%.
In the case of Cc1nn(C)cc1C(C)N(C)C(=O)c1cnc(SCc2c(F)ccc(F)c2F)n1-c1ccc(F)cc1 (stereo not drawn) [Compound 526, N-(1-(1,3-Dimethyl-1H-pyrazol-4-yl)ethyl)-1-(4-fluorophenyl)-N-methyl-2-((2,3,6-trifluorobenzyl)thio)-1H-imidazole-5-carboxamide], the activation at 1.1 µM is reported as 96%.
With CCc1noc(CSc2ncc(C(=O)N(C)Cc3cn(C)nc3C)n2-c2ccc(F)cc2)n1 [Compound 630, N-((1,3-Dimethyl-1H-pyrazol-4-yl)methyl)-2-(((3-ethyl-1,2,4-oxadiazol-5-yl)methyl)thio)-1-(4-fluorophenyl)-N-methyl-1H-imidazole-5-carboxamide] the activation at 1.1 µM was 98%.
CN(Cc1ccncc1)C(=O)c1cnc(SCc2cc(F)cc(F)c2F)n1-c1ccc(F)cc1 [Compound 619, 1-(4-Fluorophenyl)-N-methyl-N-(pyridin-4-ylmethyl)-2-((2,3,5-trifluorobenzyl)thio)-1H-imidazole-5-carboxamide] gave an activation at 1.1 µM of 96%.
Cc1nn(C)cc1CN(C)C(=O)c1cnc(SCc2ccccc2Cl)n1-c1ccc(F)cc1 [Compound 549, 2-((2-Chlorobenzyl)thio)-N-((1,3-dimethyl-1H-pyrazol-4-yl)methyl)-1-(4-fluorophenyl)-N-methyl-1H-imidazole-5-carboxamide] was tested, and the activation at 1.1 µM was 98%.
Molecule CN(Cc1ccncc1)C(=O)c1cnc(CCc2ccccc2F)n1-c1ccc(F)cc1 [Compound 538, 2-(2-Fluorophenethyl)-1-(4-fluorophenyl)-N-methyl-N-(pyridin-4-ylmethyl)-1H-imidazole-5-carboxamide] has an activation at 1.1 µM of 90%.
Molecule Cc1ccccc1CSc1ncc(C(=O)N(C)Cc2ccncc2)n1-c1ccc(F)cc1 [Compound 562, 1-(4-Fluorophenyl)-N-methyl-2-((2-methylbenzyl)thio)-N-(pyridin-4-ylmethyl)-1H-imidazole-5-carboxamide] has an activation at 1.1 µM of 82%.
Cc1nn(C)cc1CN(C)C(=O)c1cnc(CSc2c(Cl)cccc2Cl)n1-c1ccc(F)cc1 [Compound 567, 2-(((2,6-Dichlorophenyl)thio)methyl)-N-((1,3-dimethyl-1H-pyrazol-4-yl)methyl)-1-(4-fluorophenyl)-N-methyl-1H-imidazole-5-carboxamide] gave an activation at 1.1 µM of 96%.
Cc1nn(C)cc1CN(C)C(=O)c1cnc(SCc2cc3ccccn3n2)n1-c1ccc(F)cc1 [Compound 632, N-((1,3-Dimethyl-1H-pyrazol-4-yl)methyl)-1-(4-fluorophenyl)-N-methyl-2-((pyrazolo[1,5-a]pyridin-2-ylmethyl)thio)-1H-imidazole-5-carboxamide] gave an activation at 1.1 µM of 100%.
Cc1ccc(Cl)c(CSc2nnc(C(=O)N(C)Cc3ccncc3)n2-c2ccc(F)cc2)c1F [Compound 595, 5-((6-Chloro-2-fluoro-3-methylbenzyl)thio)-4-(4-fluorophenyl)-N-methyl-N-(pyridin-4-ylmethyl)-4H-1,2,4-triazole-3-carboxamide] gave an activation at 1.1 µM of 98%.
Molecule COc1ccc(Cl)c(CSc2ncc(C(=O)N(C)Cc3ccncc3)n2-c2ccc(F)cc2)c1F [Compound 612, 2-((6-Chloro-2-fluoro-3-methoxybenzyl)thio)-1-(4-fluorophenyl)-N-methyl-N-(pyridin-4-ylmethyl)-1H-imidazole-5-carboxamide] has an activation at 1.1 µM of 100%.
